From US20120100989A1, “3-Aryl-4-(2-thienylmethylene)isoxazol-5(4H)-ones as Fungicides” (Bayer CropScience AG, priority 2010, published 2012)

Assay: log P by HPLC on reversed-phase columns (C 18), EEC directive 79/831 Annex V.A8
Type: physicochemical
Details: pH 2.7
Method: The log P values were measured according to EEC directive 79/831 Annex V.A8 by HPLC (High Performance Liquid Chromatography) on reversed-phase columns (C 18), using the method below:
The determination was carried out in the acidic range at pH 2.7 using the mobile phases 0.1% aqueous formic acid and acetonitrile; linear gradient from 10% acetonitrile to 95% acetonitrile.

First: O=C1ON=C(c2cc(Br)ccc2Cl)C1=Cc1ccc(Cl)s1 [I-138]
Second: O=C1ON=C(c2ccccc2Cl)C1=Cc1ccc(Cl)s1 [I-9]
The “log P” value of the first is higher: 4.45 for the first, 3.90 for the second.

`CCOc1ccccc1C1=NOC(=O)C1=Cc1ccc(Br)s1` [I-118] and `O=C1ON=C(c2ccccc2Cl)C1=Cc1ccc(Br)s1` [I-103] are within 0.2 log units of each other in “log P” value: 4.03 for the first, 3.94 for the second.

`Cc1ccc(C2=NOC(=O)C2=Cc2sccc2C)c(C)c1` [I-97] and `Cc1ccc(C)c(C2=NOC(=O)C2=Cc2sccc2C)c1` [I-124] are within 0.2 log units of each other in “log P” value: 3.85 for the first, 3.81 for the second.

Going from `O=C1ON=C(c2ccccc2)/C1=C/c1ccc([N+](=O)[O-])s1` [U-41] to `O=C1ON=C(c2ccccc2Cl)C1=Cc1ccc([N+](=O)[O-])s1` [I-104], the “log P” value rises from 3.27 to 3.50.

First: O=C1ON=C(c2ccccc2C(F)(F)F)C1=Cc1cccs1 [I-21]
Second: O=C1ON=C(c2ccccc2OC(F)(F)F)C1=Cc1cccs1 [I-121]
The “log P” value of the first is lower: 3.03 for the first, 3.43 for the second.

`O=C1ON=C(c2ccccc2)C1=Cc1cc(-c2ccccc2)cs1` [I-110] and `O=C1ON=C(c2ccccc2Cl)C1=Cc1cc(-c2ccccc2)cs1` [I-14] are within 0.2 log units of each other in “log P” value: 4.27 for the first, 4.36 for the second.

Compared with `COc1ccc(C2=NOC(=O)C2=Cc2ccc([N+](=O)[O-])s2)cc1` [U-17], `COc1ccc(C2=NOC(=O)C2=Cc2ccc(Br)s2)cc1` [I-49] is lower in “log P” value: 6.31 for the first, 3.77 for the second.

First: COc1cccc(C2=NOC(=O)C2=Cc2cc(-c3ccccc3)cs2)c1 [I-52]
Second: O=C1ON=C(c2ccc(Cl)cc2)C1=Cc1cc(-c2ccccc2)cs1 [I-65]
The “log P” value of the first is lower: 4.27 for the first, 4.70 for the second.

`O=C1ON=C(c2cc(F)ccc2Cl)C1=Cc1cc(Br)cs1` [I-137] and `O=C1ON=C(c2cc(F)ccc2Cl)C1=Cc1ccc(Br)s1` [I-129] are within 0.2 log units of each other in “log P” value: 3.95 for the first, 4.06 for the second.

First: Cc1cc(C)cc(C2=NOC(=O)C2=Cc2sccc2C)c1 [I-88]
Second: COc1ccc(C2=NOC(=O)C2=Cc2sccc2C)cc1OC [U-26]
The “log P” value of the first is higher: 4.03 for the first, 3.17 for the second.

First: Cc1cccc(C2=NOC(=O)C2=Cc2ccc(Br)s2)c1 [I-84]
Second: Cc1cccc(C2=NOC(=O)C2=Cc2ccc(C)s2)c1 [I-85]
The “log P” value of the first is higher: 4.14 for the first, 3.67 for the second.

`Cc1ccc(C2=NOC(=O)C2=Cc2sc3ccccc3c2C)cc1` [I-142] and `Cc1c(C=C2C(=O)ON=C2c2ccc(Cl)cc2)sc2ccccc12` [I-144] are within 0.2 log units of each other in “log P” value: 4.51 for the first, 4.63 for the second.

First: CCOc1ccc(C2=NOC(=O)C2=Cc2ccc(C)s2)cc1 [I-81]
Second: CCOc1ccc(C2=NOC(=O)C2=Cc2ccc(Br)s2)cc1 [I-83]
The “log P” value of the first is lower: 3.70 for the first, 4.20 for the second.

`COc1cccc(C2=NOC(=O)C2=Cc2cc(Br)cs2)c1` [U-14] and `COc1ccc(C2=NOC(=O)C2=Cc2cc(Br)cs2)cc1` [U-16] are within 0.2 log units of each other in “log P” value: 3.76 for the first, 3.71 for the second.

Compared with `Cc1ccc(C2=NOC(=O)C2=Cc2cc(Br)c(Br)s2)cc1` [I-64], `Cc1ccc(C2=NOC(=O)C2=Cc2cc(Br)cs2)cc1` [U-7] is lower in “log P” value: 4.84 for the first, 4.09 for the second.

Going from `O=C1ON=C(c2c(F)cccc2F)C1=Cc1ccc([N+](=O)[O-])s1` [I-76] to `O=C1ON=C(c2c(F)cccc2F)C1=Cc1ccc(Br)s1` [I-72], the “log P” value rises from 3.25 to 3.73.

`Cc1ccsc1C=C1C(=O)ON=C1c1c(F)cccc1F` [I-73] and `Cc1ccc(C=C2C(=O)ON=C2c2c(F)cccc2F)s1` [I-78] are within 0.2 log units of each other in “log P” value: 3.17 for the first, 3.25 for the second.

Going from `Cc1ccc(C=C2C(=O)ON=C2c2ccccc2Cl)s1` [I-19] to `O=C1ON=C(c2ccccc2Cl)C1=Cc1cccs1` [I-6], the “log P” value falls from 3.44 to 3.17.

Going from `O=C1ON=C(c2cc(Cl)ccc2Cl)C1=Cc1cccs1` [I-35] to `O=C1ON=C(c2cc(F)ccc2Cl)C1=Cc1cccs1` [I-127], the “log P” value falls from 3.64 to 3.28.

Going from `Cc1c(C=C2C(=O)ON=C2c2ccccc2)sc2ccccc12` [I-145] to `O=C1ON=C(c2ccccc2)C1=Cc1sccc1Br` [I-109], the “log P” value falls from 4.13 to 3.69.

Compared with `COc1cc(OC)cc(C2=NOC(=O)C2=Cc2cccs2)c1` [U-21], `COc1cc(OC)cc(C2=NOC(=O)C2=Cc2ccc(C)s2)c1` [U-20] is higher in “log P” value: 3.20 for the first, 3.48 for the second.

`COc1ccc(F)cc1C1=NOC(=O)C1=Cc1sccc1C` [U-32] and `COc1ccc(F)cc1C1=NOC(=O)C1=Cc1cccs1` [U-31] are within 0.2 log units of each other in “log P” value: 3.21 for the first, 3.06 for the second.

`O=C1ON=C(c2cc(F)ccc2Cl)C1=Cc1ccc([N+](=O)[O-])s1` [I-133] and `O=C1ON=C(c2ccccc2[N+](=O)[O-])C1=Cc1ccc(Br)s1` [I-134] are within 0.2 log units of each other in “log P” value: 3.50 for the first, 3.35 for the second.

Going from `O=C1ON=C(c2ccccc2)C1=Cc1cccs1` [U-33] to `O=C1ON=C(c2ccccc2I)C1=Cc1cccs1` [I-108], the “log P” value rises from 2.91 to 3.36.

`O=C1ON=C(c2ccc(F)cc2)C1=Cc1ccc(Br)s1` [I-47] and `O=C1ON=C(c2ccc(F)cc2)C1=Cc1ccc(Cl)s1` [I-41] are within 0.2 log units of each other in “log P” value: 3.78 for the first, 3.72 for the second.

First: Cc1ccsc1C=C1C(=O)ON=C1c1ccc(Cl)cc1 [I-26]
Second: O=C1ON=C(c2ccc(Cl)cc2)C1=Cc1sccc1Br [I-61]
The “log P” value of the first is lower: 3.70 for the first, 4.23 for the second.

`CC(C)(C)c1ccc(C2=NOC(=O)C2=Cc2ccc(Br)s2)cc1` [I-93] and `CC(C)(C)c1ccc(C2=NOC(=O)C2=Cc2ccc(Cl)s2)cc1` [I-40] are within 0.2 log units of each other in “log P” value: 5.13 for the first, 5.08 for the second.

`O=C1ON=C(c2c(F)cccc2F)C1=Cc1cccs1` [I-59] and `O=C1ON=C(c2cc(F)ccc2F)C1=Cc1cccs1` [I-126] are within 0.2 log units of each other in “log P” value: 2.97 for the first, 3.07 for the second.

First: COCc1ccsc1C=C1C(=O)ON=C1c1ccccc1Cl [I-20]
Second: Cc1ccsc1C=C1C(=O)ON=C1c1cc(Br)ccc1Cl [I-132]
The “log P” value of the first is lower: 3.20 for the first, 3.97 for the second.

`O=C1ON=C(c2ccc(C(F)(F)F)cc2)C1=Cc1ccc(Cl)s1` [I-71] and `O=C1ON=C(c2ccc(OC(F)(F)F)cc2)C1=Cc1ccc(Cl)s1` [I-36] are within 0.2 log units of each other in “log P” value: 4.37 for the first, 4.42 for the second.

Compared with `COc1ccc(C2=NOC(=O)C2=Cc2sccc2C)cc1` [U-11], `Cc1ccc(C2=NOC(=O)C2=Cc2sccc2Br)cc1` [I-38] is higher in “log P” value: 3.18 for the first, 4.25 for the second.

Compared with `Cc1ccsc1C=C1C(=O)ON=C1c1ccccc1OCc1ccccc1` [I-116], `O=C1ON=C(c2ccccc2OCc2ccccc2)C1=Cc1cc(-c2ccccc2)cs1` [I-114] is higher in “log P” value: 3.89 for the first, 4.80 for the second.

First: O=C1ON=C(c2cccc(C(F)(F)F)c2)C1=Cc1cccs1 [I-57]
Second: O=C1ON=C(c2cccc(F)c2)C1=Cc1cccs1 [I-100]
The “log P” value of the first is higher: 3.61 for the first, 3.13 for the second.

Compared with `O=C1ON=C(c2ccc(-c3ccccc3)cc2)C1=Cc1ccc(Br)s1` [I-75], `O=C1ON=C(c2ccccc2)C1=Cc1ccc(Br)s1` [I-1] is lower in “log P” value: 4.88 for the first, 3.71 for the second.

Going from `COc1ccc(C2=NOC(=O)C2=Cc2cccs2)cc1OC` [U-19] to `Cc1ccc(C2=NOC(=O)C2=Cc2cccs2)cc1C` [I-92], the “log P” value rises from 3.01 to 3.73.

`Cc1cccc(C2=NOC(=O)C2=Cc2cccs2)c1C` [I-123] and `Cc1ccc(C2=NOC(=O)C2=Cc2cccs2)c(C)c1` [I-90] are within 0.2 log units of each other in “log P” value: 3.48 for the first, 3.60 for the second.

First: O=C1ON=C(c2ccccc2)C1=Cc1ccc(Cl)s1 [I-105]
Second: O=C1ON=C(c2ccccc2Cl)C1=Cc1ccc(-c2ccccc2)s1 [I-15]
The “log P” value of the first is lower: 3.76 for the first, 4.42 for the second.

Compared with `COc1ccc(C2=NOC(=O)C2=Cc2ccc(C)s2)c(OC)c1` [U-25], `Cc1ccc(C=C2C(=O)ON=C2c2ccc(Cl)cc2)s1` [I-25] is higher in “log P” value: 2.97 for the first, 3.79 for the second.

Going from `COc1cccc(C2=NOC(=O)C2=Cc2cccs2)c1OC` [U-30] to `O=C1ON=C(c2cc(Br)ccc2Cl)C1=Cc1cccs1` [I-128], the “log P” value rises from 2.97 to 3.74.

Going from `Cc1ccc(C=C2C(=O)ON=C2c2ccc([N+](=O)[O-])cc2)s1` [U-24] to `O=C1ON=C(c2ccc([N+](=O)[O-])cc2)/C1=C/c1cccs1` [U-40], the “log P” value falls from 3.29 to 3.03.

Going from `O=C1ON=C(c2cccc([N+](=O)[O-])c2)C1=Cc1cccs1` [I-24] to `Cc1ccsc1C=C1C(=O)ON=C1c1cccc(C(F)(F)F)c1` [I-91], the “log P” value rises from 2.94 to 3.82.

Compared with `O=C1ON=C(c2ccc(Cl)cc2)C1=Cc1ccc(Br)s1` [I-50], `CCc1sc(C=C2C(=O)ON=C2c2ccccc2Cl)cc1Br` [I-10] is lower in “log P” value: 4.21 for the first, 3.87 for the second.

Same assay, conditions: reversed-phase C18 HPLC column; preparation examples; HPLC, acidic range pH 2.7, formic acid; read-out: log P (HCOOH)

First: Cc1ccc(/C=C2\C(=O)ON=C2c2ccc(C(C)(C)C)cc2)s1 [I-27, 3-(4-tert-butylphenyl)-4-(2-(5-methylthienyl)methylene)isoxazol-5(4H)-one]
Second: COc1cccc(C2=NOC(=O)/C2=C\c2ccc(Cl)s2)c1 [I-37, 3-(3-methoxyphenyl)-4-(2-(5-chlorothienyl)methylene)isoxazol-5(4H)-one]
The chromatographic logP of the first is higher: 4.7 for the first, 3.74 for the second.

First: O=C1CC(c2ccc(Cl)cc2Cl)=NO1 [3-(2,4-dichlorophenyl)isoxazol-5(4H)-one]
Second: O=C1ON=C(c2ccc(Cl)cc2Cl)/C1=C/c1cccs1 [I-4, 3-(2,4-dichlorophenyl)-4-(2-thienylmethylene)isoxazol-5(4H)-one]
The chromatographic logP of the first is lower: 2.44 for the first, 3.72 for the second.
